According to patent US6511971B1, “Substituted perhalogenated phthalocyanines” (Brown University Research Foundation, priority 1998, dated 2003):

Tests used:
EMT-6 tumor = experiment: In vivo phototoxicity: photodynamic therapy in murine EMT-6 tumor model; design: species or system BALB/c mice; conditions: CRM emulsion
Protocol: The in vivo phototoxicity effects of ZnPcF64 on mouse tumors were determined by J. E. van Lier and colleagues at the University of Sherbrooke, Sherbrooke, QC, Canada, in accordance with published procedures. (Alleman et al. Int. J. Cancer, 72:289-294 (1997))
Experiments were performed on male BALB/c mice (16-22 g) and female Fisher CDF (F-344) rats (approx. 150 g) (Charles River, Montreal, Canada) following a protocol approved by the Canadian Council on Animal Care and an in-house ethics committee. Animals were allowed free access to water and food throughout the course of the experiments. Before tumor implantation, hair on the hind legs and back of the mice was removed by shaving and chemical depilating (Nair®, Whitehall, Mississauga, Canada). A tumor was implanted on each hind thigh by intradermal injection of 2 times 10^5 EMT-6 cells suspended in 0.05 ml Waymouth's growth medium. Biodistribution and photodynamic activity of ZnPcF64 were assayed using a murine EMT-6 tumor model (Allémann et al. Int. J. Cancer, 72:289-294 (1997)).
For PDT studies, mice were used 6-8 days after tumor inoculation (tumor size: 3-5 mm diameter, 2-3 mm thickness). At this time point, the tumor is sufficiently large to be measured, while therapeutic response can be observed without interference of spontaneous necrosis (Margaron et al. Anticancer Res. 16:613-620 (1996)). Animals were given an i.v. injection of ZnPcF64 formulated as a CRM emulsion at I or 2.5 μmol kg^−1 (0.2 ml), and one tumor was treated with red light 24-72 hr later, while the other tumor served as a control. Tumors were illuminated with an 8-mm diameter beam of 650-700 nm light ([…] for a total fluence of 100-400 J .cm^−2) generated by a 1,000 W Xenon lamp, equipped with a 10-cm circulating water filter and 2 glass filters (Corion LL650 and LS700, Holliston, Mass.). A positive tumor response (necrosis) was assigned to tumors which appeared macroscopically as flat and necrotic tissues within a few days after PDT (Allémann et al. Int. J Canc. 66:821-824 (1996)). […]

[1] = test system: EMT-6 mouse mammary tumor cells; experiment: In vitro phototoxicity: cell photo-inactivation, MTT cell survival assay; assay type: cell-based; conditions: EMT-6 cells
Protocol: Chremophor emulsions were prepared and cell photo inactivation was determined by J. E. van Lier and colleagues at the University of Sherbrooke, Sherbrooke, QC, Canada, in accordance with published procedures. (Alleman et al. Int. J. Cancer, 72:289-294 (1997))
Chremophor EL (CRM) was obtained from BASF (Toronto, Canada). All solvents were of analytical grade, and all other chemicals were commercially available products. Zinc octakis (perfluoroisopropyl) perfluorophthalocyanine (“ZnPcF64”, 2.5 mg) was first dissolved in methanol (2 mL). 500 μL of Chremophor and 150 μL of propane diol were added to the solution. The methanol was evaporated by rotory evaporation at room temperature. The residue was diluted with PBS to 5 mL and sterile filtered (0.2 μm). […]
After incubation, cells were rinsed twice with PBS, refed with 100 μl Waymouth 15% FBS and exposed to red light. […] The fluence rate calculated over the absorbance peaks of the dyes (660-700 nm) was 10 mW cm^−2, for a total fluence of 0.6-36 J/cm^2. […] Plates were incubated overnight at 37° C., after which the absorbance was read at 595 nm by means of a microplate reader (BioRad, Mississauga, Canada). The average absorbance of the blank wells in which cells were omitted was subtracted from the readings of the other wells. The average absorbance of the control cells, which were incubated with dye-free Waymouth 1% FBS, represents 100% cell survival. […]

“Zinc Octakis (perfluoroisopropyl) Perfluorophthalocyanine, Bis-acetone Solvate [ZnPcF64]” was tested, and the “tumor response after PDT” value (EMT-6 tumor; 1 μmol/kg i.v., 650-700 nm light 24-72 hr later, EMT-6 tumor in mice) was “complete tumor necrosis”, the “inflammation after PDT” value (EMT-6 tumor; 1 μmol/kg i.v., 650-700 nm light, EMT-6 tumor in mice) was “some inflammation” and the “outcome of treated mice (lethality)” value (EMT-6 tumor; 2.5 μmol/kg i.v., tumor-bearing mice) was “died of shock”. For the same substance, the phototoxic effects ([1]; CRM emulsion at 1 and 3 μM, 1 or 24 hours incubation, red light 660-700 nm, 0.6-36 J/cm^2, any conditions) was “No phototoxic effects” and the Cell survival ([1]; highest dye concentrations and longest light exposure) was 100%.
